Measured values reported in patent US20040253139A1, “Environmental surface disinfectant” (priority 2003, published 2004).

System: E. coli (ATCC 25922)
Assay: Lower effective concentration of ethyl lactate, modification of AOAC Method 956.17
Type: cell-based
Conditions: 15% solution of ethyl lactate, exposure 10 minutes
Procedure: Using a modification of AOAC Method 956.17, the lower effective concentration for ethyl lactate was tested against E. coli (ATCC 25922) at three reaction times at varying concentrations of ethyl lactate.

For `CCOC(=O)C(C)O` (stereo not shown) [ethyl lactate], the Bacterial growth was “eliminated bacterial growth”.
